Reference: patent US20260034112A1, “MULTI-CYCLIC IRAK1 AND IRAK4 INHIBITING COMPOUNDS AND USES THEREOF” (CHILDREN'S HOSPITAL MEDICAL CENTER, priority 2022, published 2026)

Test system: THP1 cells
Assay type: cell-based, human
Conditions: CA-4948 vs DMSO in THP1 cells

SMILES: Cc1cc(-c2nc(C(=O)Nc3cc4oc(N5CCOCC5)nc4nc3N3CC[C@@H](O)C3)co2)ccn1 [CA-4948, emavusertib]
- Log(FC) of gene LOC101929243: 0.7647
- Log(FC) of gene LOC101929264: 0.8417
- Log(FC) of gene LOC101929280: 0.7936
- Log(FC) of gene LOC101929661: 0.748
- Log(FC) of gene LOC101929747: 0.6127
- Log(FC) of gene LOC101929814: −0.8463
- Log(FC) of gene LOC102467073: 0.73
- Log(FC) of gene LOC102723589: 0.8153
- Log(FC) of gene LOC102723616: 0.7122
- Log(FC) of gene LOC102723714: 0.6674
- Log(FC) of gene LOC102723959: 0.9881
- Log(FC) of gene LOC102723975: 1.408
- Log(FC) of gene LOC102724098: −0.6399
- Log(FC) of gene LOC102724169: 0.726
- Log(FC) of gene LOC102724217: 0.6865
- Log(FC) of gene LOC102724235: 0.7375
- Log(FC) of gene LOC102724248: 0.652
- Log(FC) of gene LOC102724409: 1.429
- Log(FC) of gene LOC102724528: −0.8481
- Log(FC) of gene LOC102724545: 0.8513
- Log(FC) of gene LPAR2: 0.7255
- Log(FC) of gene M1AP: 0.7754
- Log(FC) of gene MAMDC4: 0.628
- Log(FC) of gene MBLAC1: −0.6134
- Log(FC) of gene MDGA1: 0.7307
- Log(FC) of gene METTL12: 0.6315
- Log(FC) of gene MFI2-AS1: 0.5997
- Log(FC) of gene MGC12916: −0.9124
- Log(FC) of gene MGC16142: 0.5952
- Log(FC) of gene MIR570: 1.064
- Log(FC) of gene MIR1244-1: 0.6309
- Log(FC) of gene MIR3187: 1.121
- Log(FC) of gene MROH6: 0.8417
- Log(FC) of gene MYLK-AS1: 1.091
- Log(FC) of gene MYO7B: 0.6068
- Log(FC) of gene NGFR: 0.8097
- Log(FC) of gene NOL3: 0.6401
- Log(FC) of gene NPFF: 0.6633
- Log(FC) of gene NPIPA3: 1.643
- Log(FC) of gene NPIPA8: 0.8183
- Log(FC) of gene ORM1: 0.6834
- Log(FC) of gene PAPPA2: 0.8397
- Log(FC) of gene PAQR6: 0.6274
- Log(FC) of gene PAX8: −0.6687
- Log(FC) of gene PCBP3: 0.5937
- Log(FC) of gene PCOLCE2: −0.6424
- Log(FC) of gene PDE5A: 0.8121
- Log(FC) of gene PDPN: 0.7486
- Log(FC) of gene PITX2: 0.6882
- Log(FC) of gene POLN: 1.016
- Log(FC) of gene POTEE: 1.077
- Log(FC) of gene PPIEL: 0.6279
- Log(FC) of gene PPP1R13L: 0.6598
- Log(FC) of gene PPP1R32: 0.5902
- Log(FC) of gene PROB1: 0.6297
- Log(FC) of gene PRR22: 1.272
- Log(FC) of gene PRSS53: 0.79
- Log(FC) of gene PSMG3-AS1: 0.6249
- Log(FC) of gene PTGER1: 0.6218
- Log(FC) of gene QRICH2: 0.9066
- Log(FC) of gene RAPGEFL1: 0.6118
- Log(FC) of gene RARRES3: 0.6342
- Log(FC) of gene RASSF8-AS1: −0.6459
- Log(FC) of gene RCN3: 0.6431
- Log(FC) of gene RIMS2: −0.6856
- Log(FC) of gene RN7SK: −0.7805
- Log(FC) of gene RN7SL1: −0.6652
- Log(FC) of gene RNU2-2P: −3.126
- Log(FC) of gene RNU86: 0.6578
- Log(FC) of gene RNU105A: −0.7199
- Log(FC) of gene RP3-476K8.3: 0.6781
- Log(FC) of gene RP11-261C10.3: −0.7243
- Log(FC) of gene RP11-307C12.11: 0.6268
- Log(FC) of gene RP11-344E13.3: 0.712
- Log(FC) of gene RP11-454P21.1: 0.5869
- Log(FC) of gene RP11-540A21.2: −0.8218
- Log(FC) of gene RPPH1: −1.864
- Log(FC) of gene RPS18P9: 0.9157
- Log(FC) of gene RPSAP9: −0.6976
- Log(FC) of gene RUFY4: 0.9698
- Log(FC) of gene SAMD5: −0.6977
- Log(FC) of gene SAMD13: −0.6418
- Log(FC) of gene SAP25: 0.962
- Log(FC) of gene SARM1: 0.783
- Log(FC) of gene SCART1: 1.38
- Log(FC) of gene SCN8A: 0.7836
- Log(FC) of gene SCXB: 0.8721
- Log(FC) of gene SEC31B: 0.7359
- Log(FC) of gene SEMA3B: 0.6963
- Log(FC) of gene SEMA3C: −0.6821
- Log(FC) of gene SEMG1: −0.6203
- Log(FC) of gene SERPINB2: −0.6225
- Log(FC) of gene SIGLEC16: 0.7305
- Log(FC) of gene SIM1: −0.8741
- Log(FC) of gene SLC2A14: 0.5944
- Log(FC) of gene SLC7A5P2: 0.8202
- Log(FC) of gene SLC7A11: −0.9711
- Log(FC) of gene SLC22A20: 0.7923
- Log(FC) of gene SLC25A5-AS1: −0.5981
- Log(FC) of gene SLCO2B1: −0.6999
- Log(FC) of gene SLFNL1: 0.599
- Log(FC) of gene SLFNL1-AS1: 0.7053
- Log(FC) of gene SMA4: −0.6311
- Log(FC) of gene SNORD3A: −1.579
- Log(FC) of gene SNORD30: 1.062
- Log(FC) of gene SNORD79: 0.5858
- Log(FC) of gene SNX32: 0.6555
- Log(FC) of gene SPATA41: 0.6171
- Log(FC) of gene SPATC1: 1.175
- Log(FC) of gene SPRED1: −0.6296
- Log(FC) of gene SPTBN5: 1.272
- Log(FC) of gene ST13P4: −0.623
- Log(FC) of gene STX18-AS1: 0.8594
- Log(FC) of gene STXBP5-AS1: 0.6561
- Log(FC) of gene SYDE2: −0.6236
- Log(FC) of gene SYTL2: 0.7254
- Log(FC) of gene TCAM1P: 0.6669
- Log(FC) of gene TEKT4P2: 0.8324
- Log(FC) of gene TESPA1: 0.724
- Log(FC) of gene TLR5: 0.7065
- Log(FC) of gene TMEM9B-AS1: 0.8758
- Log(FC) of gene TMEM86B: 0.6481
- Log(FC) of gene TMEM145: 0.9943
- Log(FC) of gene TMEM150A: −0.8108
- Log(FC) of gene TMEM175: 0.6594
- Log(FC) of gene TMEM191A: 0.6824
- Log(FC) of gene TMEM254-AS1: 0.767
- Log(FC) of gene TMEM255A: −0.5904
- Log(FC) of gene TMPRSS13: 0.6639
- Log(FC) of gene TNFAIP8L2-SCNM1: −1.749
- Log(FC) of gene TNXB: 1.806
- Log(FC) of gene TP53I3: 0.7187
- Log(FC) of gene TPD52L1: 0.7014
- Log(FC) of gene TRIM72: 0.5946
- Log(FC) of gene TSKU: −0.6402
- Log(FC) of gene TSPEAR-AS1: 0.5855
- Log(FC) of gene TTC4: −0.6304
- Log(FC) of gene TUBA1A: 0.5916
- Log(FC) of gene TXLNB: 0.8051
- Log(FC) of gene UCN: 1.177
- Log(FC) of gene UCP3: 0.6963
- Log(FC) of gene ULK4P1: −0.9282
- Log(FC) of gene UNC5CL: 0.8031
- Log(FC) of gene VAMP5: 0.6392
- Log(FC) of gene VWA7: 0.8656
- Log(FC) of gene WDFY3-AS2: 0.6617
- Log(FC) of gene WNK4: 1.507
- Log(FC) of gene WT1-AS: 0.6396
- Log(FC) of gene YJEFN3: 1.024
- Log(FC) of gene ZCWPW2: −0.722
- Log(FC) of gene ZDHHC11: 1.406
- Log(FC) of gene ZNF284: −0.5982
- Log(FC) of gene ZNF491: 0.7713
- Log(FC) of gene ZNF891: −0.7965
- Log(FC) of gene ZP3: 0.9339
- Log(FC) of gene ZSWIM8-AS1: 0.9316
